Results taken from the supplement of paper PMC13380429.

Experiments:
Conditions in all cases: 72 h
[1] = system: Caco-2; assay: cell viability relative to DMSO; higher = less toxic
[2] = system: Vero E6; assay: as above
[3] = system: U2OS; assay: as above
[4] = system: HepG2; assay: as above
[5] = system: Calu-3; assay: as above
[6] = system: Vero E6; assay: relative viability EC50 (midpoint between 100% and the lowest measured viability); higher = less toxic
[7] = system: U2OS; assay: as above
[8] = system: Calu-3; assay: as above
[9] = system: Caco-2; assay: drug sensitivity score (DSS) for viability; higher = more toxic; extreme values may be limits of the assay
[10] = system: Vero E6; assay: as above
[11] = system: U2OS; assay: as above
[12] = system: HepG2; assay: as above
[13] = system: Calu-3; assay: as above
[14] = system: HepG2; assay: relative viability EC50 (midpoint between 100% and the lowest measured viability); higher = less toxic
[15] = system: Caco-2; assay: as above

SMILES	cell viability ([1]; 1 nM) [%]	cell viability ([1]; 10 nM) [%]	cell viability ([1]; 100 nM) [%]	cell viability ([1]; 1000 nM) [%]	cell viability ([1]; 10000 nM) [%]	cell viability ([2]; 1 nM) [%]	cell viability ([2]; 10 nM) [%]	cell viability ([2]; 100 nM) [%]	cell viability ([2]; 1000 nM) [%]	cell viability ([2]; 10000 nM) [%]	cell viability ([3]; 1 nM) [%]	cell viability ([3]; 10 nM) [%]	cell viability ([3]; 100 nM) [%]	cell viability ([3]; 1000 nM) [%]	cell viability ([3]; 10000 nM) [%]	cell viability ([4]; 1 nM) [%]	cell viability ([4]; 10 nM) [%]	cell viability ([4]; 100 nM) [%]	cell viability ([4]; 1000 nM) [%]	cell viability ([4]; 10000 nM) [%]	cell viability ([5]; 1 nM) [%]	cell viability ([5]; 10 nM) [%]	cell viability ([5]; 100 nM) [%]	cell viability ([5]; 1000 nM) [%]	cell viability ([5]; 10000 nM) [%]	relative viability EC50 [6] [µM]	relative viability EC50 [7] [µM]	relative viability EC50 [8] [µM]	drug sensitivity score [9]	drug sensitivity score [10]	drug sensitivity score [11]	drug sensitivity score [12]	drug sensitivity score [13]	relative viability EC50 [14] [µM]	relative viability EC50 [15] [µM]
NCCNc1ccc(NCCN)c2c1C(=O)c1ccncc1C2=O [pixantrone]	87.4	105	96.7	88.1	74.9	104	104	104	94.4	97	100	101	96.5	103	87.2	100	94.8	98.9	90.2	62.9	93.4	120	95.4	102	82.5	> 10	> 10	> 10	1.9	0	0	3.3	0.3		
CC(C)(N)c1cc(C(=O)N[C@@H]2CCc3ccc(Oc4ccnc5c4CCC(=O)N5)cc3C2)cc(C(F)(F)F)c1 [ML786]	108	92.7	104	90.8	68.5	106	105	112	99	33.5	101	98.6	100	82.4	9.6	99.2	110	62.4	31.1	6.8						3.06	1.76		2.7	3.8	7.9	17.5		0.221	
C[C@H]1[C@H](OC(=O)CCC(=O)O)O[C@@H]2O[C@@]3(C)CC[C@H]4[C@H](C)CC[C@@H]1[C@@]24OO3 [artesunate]	102	96.1	98.3	98.3	73	97.4	97.8	96.5	98.5	69.2	102	100	100	81	35.3	91.9	96.5	94.5	88.3	65.2	104	98.3	114	107	88		1.42	> 10	1.3	1.6	6.4	2.8	0		
CCOC(=O)[C@H](C)C[C@@H](Cc1ccc(-c2ccccc2)cc1)NC(=O)CCC(=O)O [sacubitril]	94.4	95.3	101	92.5	100	93.6	106	91.3	94.5	107	101	98.5	96	97.3	97.5						91.6	96.6	99.4	97.3	98.5	> 10	> 10	> 10	0	0	0		0		> 10
O=C(/C=C/c1ccc(O)c(O)c1)c1ccc(O)cc1O [butein]	95.5	103	101	92	61.9	103	101	102	99.6	101	93.8	101	94.9	96.9	75.9	99.3	103	104	93.4	58.4	100	103	97.2	112	92.7	> 10	> 10	> 10	3.2	0	1.4	3.2	0		
CC(C)=CCc1c(O)cc(O)c2c(=O)c(O)c(-c3ccc(C(F)(F)F)cc3)oc12 [SNG-1153]	92.1	93.8	98.1	95.8	40	100	94.3	100	93	50.7	96.7	94.7	94.5	99.9	43.2	97.3	98.8	106	103	40.2	114	89.6	108	99.3	68.1		3.14		3.9	3.8	3.1	3	1.5	3.43	2.6
Cc1ccc(C(=O)c2cc(O)c(O)c([N+](=O)[O-])c2)cc1 [tolcapone]						109	102	99.8	100	104						106	117	105	109	97.2						> 10				0		0		> 10	
COc1cccc(C=NCCN=Cc2cccc(OC)c2[O-])c1[O-].[Cl-].[Mn+3] [EUK-134]	94.7	89	91.5	92	85.6	98.4	102	99.3	105	96	101	96.6	107	99.3	99	95	109	99.5	101	72.3	110	87.9	102	94	99.3	> 10	> 10	> 10	0	0	0	1.1	0		> 10
